Results on 1 compound are retold here after patent publication US20180055844A1 (Celgene Corporation, priority 2011, published 2018).

Assay in all cases: Activity against lenalidomide resistant cell lines
Common to all, as to type: cell-based

One experiment concerns 1052. The following applies: 1052, n = 3. Here is the method: (§1) The ability of compounds to effect the proliferation of MM cell lines was investigated in an in vitro study. Uptake of [^3H]-thymidine by H929 MM cells and 7-AAD uptake in several MM cell lines (H929, U266B1, Anbl-6, KMS-34, OPM-2, DF-15, DF15/R, CAG, MM1.S and LP-1) was measured as an indicator of cell proliferation. Cells were incubated in the presence of compounds for 72 hours ([^3H]-thymidine was included for the last 6 hours of the incubation period) or 5 days followed by 7-AAD uptake to measure and count viable cells.

The subject of another experiment is 1054. The following applies: 1054, n = 3. Here is the method: as §1
Another experiment has as its system D1. The note with it: D1, n = 3. Here is the method:
as §1

Another experiment relates to H929. The note with it: Homo sapiens, NCI-H929; H929, n = 3. Here is the method: as §1
Another experiment concerns 1053. The following applies: 1053, n = 3. Here is the method: as §1
For the next experiment, the system named is 1051. The following applies: 1051, n = 3. Here is the method:
as §1

Turning to `Nc1cccc2c1CN(C1CCC(=O)NC1=O)C2=O` (stereo not drawn) [Lenolidomide, Lenalidomide, reference compound], the IC50 result is “No IC50” with 1052; “No IC50” in the experiment on 1054; “No IC50” with D1; 12.6 µM with H929; “No IC50” in the experiment on 1053; “No IC50” in the experiment on 1051.

As usually defined, the IC50 is the concentration that gives 50% inhibition. High values mean weaker potency in that assay, low ones greater potency in that assay.
